We go through one molecule from ChEMBL document CHEMBL5154789 (J Med Chem, 2022).

One may read the IC50 as the concentration at which inhibition is half-maximal.

The structures appear in SMILES notation. Activity calls are given as the source filed them. The rule behind the calls is not given here.

Data set [1] addresses Fibroblast growth factor receptor 1 (Homo sapiens, UniProt P11362).
Description: Inhibition of FGFR1 (unknown orgin) using Tyr 04 peptide as substrate incubated for 1 hr in presence of 25 uM ATP by FRET based Z'-LYTE assay
Data set [2] concerns BaF3. Briefly: cells. The note with it: Mus musculus, BaF3, 72 h.
In data set [3] the test system is Huh-7. Briefly: Antitumor activity against human Huh-7 cells xenografted in BALB/c nude mouse assessed as tumor growth inhibition at 20 mg/kg, ip administered twice daily for 17 continuous days and measured every 2 days. The note with it: Huh-7, 408 h, time 17 day, read-out: TGI. Format: functional.
Data set [4] is described as follows: Toxicity in BALB/c nude mouse xenografted with human Huh-7 cells assessed as loss of body weight at 20 to 40 mg/kg, […] administered twice daily for 17 days and measured every 2 days. Format: organism-based. The settings on record: in vivo, 408 h, dose 20-40 mg/kg, time 17 day. (In general: Xenograft models place foreign cells or tissue in a host animal.)
Data set [5] has as its target Fibroblast growth factor receptor 4 (Mus musculus) (UniProt Q03142). The experiment in a line: Inhibition of wild type FGFR4 phosphorylation in mouse BAF3 cells assessed as reduction in FRS2 level at 3 to 90 nM incubated for 6 hrs by Western blot analysis. Format: cell-based. The note with it: dose 3-90 nM. A general note: A western blot detects proteins with antibodies after separation by electrophoresis.

For data set [6], the system named is NCI-H1299. Briefly: cells. The settings on record: Homo sapiens, NCI-H1299, 120 h.
Description: Antiproliferative activity against human NCI-H1299 cells assessed as inhibition of cell growth incubated for 5 days by SRB assay
In data set [7] the target is Fibroblast growth factor receptor 4 (Mus musculus) (UniProt Q03142). Briefly: Inhibition of wild type FGFR4 phosphorylation in mouse BAF3 cells assessed as reduction in MAPK level at 3 to 90 nM incubated for 6 hrs by Western blot analysis. The settings on record: dose 3-90 nM. Format: cell-based.
The subject of data set [8] is BaF3. The experiment in a line: Antiproliferative activity against mouse BAF3 cells expressing FGFR4 V550M mutant assessed as inhibition of cell growth incubated for 72 hrs by CCK8 assay. The settings on record: BaF3, 72 h. Format: functional, cell-based. On the technique in general: Tetrazolium assays rely on reduction of a dye to a coloured formazan, in cell work by metabolically active cells.

The test system of data set [9] is Huh-7. Briefly: Antiproliferative activity against human Huh-7 cells assessed as inhibition of cell growth incubated for 5 days by SRB assay. The data set is classed as functional, cell-based. The settings on record: Huh-7, 120 h.
Data set [10] relates to BaF3. The experiment in a line: Antiproliferative activity against mouse BAF3 cells assessed as inhibition of cell growth incubated for 72 hrs by CCK8 assay. The data set is classed as functional, cell-based. The settings on record: BaF3, 72 h.
The target of data set [11] is Fibroblast growth factor receptor 2 (Homo sapiens, UniProt P21802).
Description: Inhibition of FGFR2 (unknown orgin) using Tyr 04 peptide as substrate incubated for 1 hr in presence of 5 uM ATP by FRET based Z'-LYTE assay
Data set [12] has as its system BaF3. The experiment in a line: Inhibition of FGFR4 V550L mutant signalling in mouse BAF3 cells at 3 to 90 nM incubated for 6 hrs by Western blot analysis. The data set is classed as cell-based. The note with it: dose 3-90 nM.
The nature of data set [13]: Antiproliferative activity against human JHH7 cells assessed as inhibition of cell growth incubated for 5 days by SRB assay. The data set is classed as functional, cell-based. The note with it: JHH7, 120 h.
The target in data set [14] is Fibroblast growth factor receptor 4 (Mus musculus) (UniProt Q03142). Briefly: Inhibition of wild type FGFR4 phosphorylation in mouse BAF3 cells at 30 nM incubated for 6 hrs by Western blot analysis. The data set is classed as cell-based.
The test system of data set [15] is Hep 3B2. The experiment in a line: cells. The settings on record: Homo sapiens, Hep3B, 120 h.
Description: Antiproliferative activity against human Hep3B cells assessed as inhibition of cell growth incubated for 5 days by SRB assay
In data set [16] the target is Fibroblast growth factor receptor 3 (Homo sapiens, UniProt P22607).
Description: Inhibition of FGFR3 (unknown orgin) using Tyr 04 peptide as substrate incubated for 1 hr in presence of 75 uM ATP by FRET based Z'-LYTE assay
Data set [17] has as its system Huh-7. Briefly: Antitumor activity against human Huh-7 cells xenografted in ip dosed BALB/c nude mouse assessed as tumor growth inhibition administered twice daily for 17 continuous days and measured every 2 days. Format: functional, organism-based. The settings on record: time 17.0 day, DDE = dose-dependent effect.
The test system of data set [18] is BaF3. The experiment in a line: cells. The settings on record: Mus musculus, BaF3, 72 h. This is another data set of the same source.
Data set [19] concerns MDA-MB-453. Briefly: cells. The note with it: Homo sapiens, MDA-MB-453, 120 h.
Description: Antiproliferative activity against human MDA-MB-453 cells assessed as inhibition of cell growth incubated for 5 days by SRB assay
Data set [20] concerns Huh-7. Briefly: Antitumor activity against human Huh-7 cells xenografted in BALB/c nude mouse assessed as tumor growth inhibition at 40 mg/kg, ip administered twice daily for 17 continuous days and measured every 2 days. The settings on record: Huh-7, 408 h, time 17 day, read-out: TGI. Format: functional.

Chain of Fibroblast growth factor receptor 4 (Mus musculus) (Q03142 17-799 limits assumed): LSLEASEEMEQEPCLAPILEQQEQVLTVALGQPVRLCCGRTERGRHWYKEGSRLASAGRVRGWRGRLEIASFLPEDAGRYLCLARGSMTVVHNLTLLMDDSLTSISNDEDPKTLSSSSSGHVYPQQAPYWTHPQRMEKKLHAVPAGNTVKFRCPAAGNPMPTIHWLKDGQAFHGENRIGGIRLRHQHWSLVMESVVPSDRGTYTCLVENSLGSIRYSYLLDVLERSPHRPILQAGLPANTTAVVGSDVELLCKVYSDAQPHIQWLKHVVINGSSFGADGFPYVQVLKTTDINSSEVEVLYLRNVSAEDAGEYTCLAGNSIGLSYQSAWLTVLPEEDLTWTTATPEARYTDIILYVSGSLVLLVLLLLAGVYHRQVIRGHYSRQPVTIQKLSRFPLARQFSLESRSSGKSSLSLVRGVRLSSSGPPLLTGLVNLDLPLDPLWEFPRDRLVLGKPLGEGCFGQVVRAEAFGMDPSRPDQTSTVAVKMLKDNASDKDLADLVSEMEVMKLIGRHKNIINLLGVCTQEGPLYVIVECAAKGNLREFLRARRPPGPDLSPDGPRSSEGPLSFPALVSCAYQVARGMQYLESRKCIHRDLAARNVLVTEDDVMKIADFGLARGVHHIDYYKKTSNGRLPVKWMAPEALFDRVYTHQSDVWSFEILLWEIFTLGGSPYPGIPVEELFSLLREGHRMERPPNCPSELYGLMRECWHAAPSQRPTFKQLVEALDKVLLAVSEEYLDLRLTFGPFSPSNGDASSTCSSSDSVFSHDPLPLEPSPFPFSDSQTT
Chain of Fibroblast growth factor receptor 3 (P22607 whole entry): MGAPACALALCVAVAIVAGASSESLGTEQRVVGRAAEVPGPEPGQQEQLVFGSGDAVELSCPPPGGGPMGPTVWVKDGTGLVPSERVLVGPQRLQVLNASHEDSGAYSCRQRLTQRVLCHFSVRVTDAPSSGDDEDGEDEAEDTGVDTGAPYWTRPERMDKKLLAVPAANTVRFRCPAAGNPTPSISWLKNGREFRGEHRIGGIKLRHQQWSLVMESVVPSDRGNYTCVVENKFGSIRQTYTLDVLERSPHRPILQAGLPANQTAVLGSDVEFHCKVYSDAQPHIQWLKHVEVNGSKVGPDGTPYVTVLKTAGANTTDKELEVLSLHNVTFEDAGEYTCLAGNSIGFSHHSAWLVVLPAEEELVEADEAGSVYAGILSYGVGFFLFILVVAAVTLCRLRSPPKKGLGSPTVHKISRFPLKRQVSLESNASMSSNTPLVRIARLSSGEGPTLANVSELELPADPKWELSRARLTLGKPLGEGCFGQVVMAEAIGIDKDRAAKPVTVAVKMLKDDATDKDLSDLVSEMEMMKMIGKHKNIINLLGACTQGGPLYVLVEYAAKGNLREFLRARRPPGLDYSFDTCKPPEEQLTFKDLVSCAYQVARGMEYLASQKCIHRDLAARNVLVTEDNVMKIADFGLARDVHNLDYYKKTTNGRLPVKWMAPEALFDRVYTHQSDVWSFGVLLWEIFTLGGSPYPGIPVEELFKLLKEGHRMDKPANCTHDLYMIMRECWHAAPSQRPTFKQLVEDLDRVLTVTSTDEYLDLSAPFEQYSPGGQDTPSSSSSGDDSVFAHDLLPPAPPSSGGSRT
Chain of Fibroblast growth factor receptor 1 (P11362 whole entry): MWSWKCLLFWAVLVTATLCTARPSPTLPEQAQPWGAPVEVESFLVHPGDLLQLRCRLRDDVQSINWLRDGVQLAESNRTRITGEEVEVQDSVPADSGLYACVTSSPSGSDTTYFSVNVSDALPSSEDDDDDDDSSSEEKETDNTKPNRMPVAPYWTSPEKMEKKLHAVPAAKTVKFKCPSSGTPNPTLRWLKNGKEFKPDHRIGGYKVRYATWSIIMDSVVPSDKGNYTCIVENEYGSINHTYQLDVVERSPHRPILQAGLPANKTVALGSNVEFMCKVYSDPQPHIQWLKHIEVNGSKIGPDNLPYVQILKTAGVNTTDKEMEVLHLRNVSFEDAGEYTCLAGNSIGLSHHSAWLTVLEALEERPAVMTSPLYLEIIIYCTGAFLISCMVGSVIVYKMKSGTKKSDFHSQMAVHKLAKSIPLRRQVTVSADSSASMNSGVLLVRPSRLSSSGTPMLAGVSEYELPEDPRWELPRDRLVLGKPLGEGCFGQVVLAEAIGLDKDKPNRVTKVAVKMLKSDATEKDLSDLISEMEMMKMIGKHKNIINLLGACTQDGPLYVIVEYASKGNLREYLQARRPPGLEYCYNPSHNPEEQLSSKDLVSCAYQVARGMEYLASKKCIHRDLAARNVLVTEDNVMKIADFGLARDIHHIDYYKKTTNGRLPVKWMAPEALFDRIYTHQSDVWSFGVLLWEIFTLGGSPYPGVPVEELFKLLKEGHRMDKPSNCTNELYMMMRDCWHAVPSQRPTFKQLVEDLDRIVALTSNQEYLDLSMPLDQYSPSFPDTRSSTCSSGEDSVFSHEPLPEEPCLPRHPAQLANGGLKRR
Chain of Fibroblast growth factor receptor 2 (P21802 whole entry): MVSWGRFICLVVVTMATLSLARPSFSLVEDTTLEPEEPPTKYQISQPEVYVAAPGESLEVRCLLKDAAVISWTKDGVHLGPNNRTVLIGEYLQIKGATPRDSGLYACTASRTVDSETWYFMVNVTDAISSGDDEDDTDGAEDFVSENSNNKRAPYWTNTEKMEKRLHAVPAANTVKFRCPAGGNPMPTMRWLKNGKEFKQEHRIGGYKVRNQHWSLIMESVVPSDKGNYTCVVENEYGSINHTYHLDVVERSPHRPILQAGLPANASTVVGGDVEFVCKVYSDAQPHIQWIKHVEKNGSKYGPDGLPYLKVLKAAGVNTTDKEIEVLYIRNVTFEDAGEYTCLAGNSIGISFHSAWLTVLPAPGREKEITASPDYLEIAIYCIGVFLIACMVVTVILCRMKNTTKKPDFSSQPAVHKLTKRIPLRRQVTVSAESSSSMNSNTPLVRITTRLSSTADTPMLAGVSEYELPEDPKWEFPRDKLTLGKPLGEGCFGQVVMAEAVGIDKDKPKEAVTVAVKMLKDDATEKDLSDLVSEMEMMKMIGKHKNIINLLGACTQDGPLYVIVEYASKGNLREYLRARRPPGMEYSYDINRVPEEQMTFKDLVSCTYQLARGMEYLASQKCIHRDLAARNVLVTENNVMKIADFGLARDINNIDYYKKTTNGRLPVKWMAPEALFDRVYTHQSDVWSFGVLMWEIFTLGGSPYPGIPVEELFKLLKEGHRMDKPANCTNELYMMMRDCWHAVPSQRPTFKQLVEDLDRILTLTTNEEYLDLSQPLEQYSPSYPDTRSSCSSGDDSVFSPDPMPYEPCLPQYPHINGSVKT

For the molecule `C=CC(=O)Nc1cc(N2CCC(N3CCOCC3)CC2)cc(F)c1Nc1n[nH]c2ccc(O[C@H](C)c3c(Cl)cncc3Cl)cc12`, the IC50 in data set [1] was more than 10000 nM; in data set [2], 4.7 nM; in [6] it was 2970 nM; in [8], 8.1 nM; in data set [9] it was 72 nM; in data set [10], more than 1000 nM. Further, the IC50 in data set [11] is more than 10000 nM; in [13] it was 54 nM; in data set [15] it was 29 nM; in data set [16], more than 10000 nM; in data set [18] it was 3.5 nM; in data set [19], 34 nM. For the same molecule, the inhibition in vivo at 20 mg/kg in data set [3] amounted to 25.9%. Besides, the values for the Activity entry in data set [4] and in data set [17] were “Non-Toxic” and “Dde”, respectively. The inhibition entry in data set [5], in data set [7], in [12] and in [14] was “Active” throughout. For the same molecule, in [20], the inhibition in vivo at 40 mg/kg came to 46.9%.
